Assay results published in ChEMBL document CHEMBL3774368, “1,2,4-Triazolyl octahydropyrrolo[2,3-b]pyrroles: A new series of potent and selective dopamine D3 receptor antagonists” (Bioorg Med Chem, 2016).

Biological target: T1, Muscarinic acetylcholine receptor M1 (Homo sapiens, UniProt P11229)
T1 sequence (P11229 whole entry): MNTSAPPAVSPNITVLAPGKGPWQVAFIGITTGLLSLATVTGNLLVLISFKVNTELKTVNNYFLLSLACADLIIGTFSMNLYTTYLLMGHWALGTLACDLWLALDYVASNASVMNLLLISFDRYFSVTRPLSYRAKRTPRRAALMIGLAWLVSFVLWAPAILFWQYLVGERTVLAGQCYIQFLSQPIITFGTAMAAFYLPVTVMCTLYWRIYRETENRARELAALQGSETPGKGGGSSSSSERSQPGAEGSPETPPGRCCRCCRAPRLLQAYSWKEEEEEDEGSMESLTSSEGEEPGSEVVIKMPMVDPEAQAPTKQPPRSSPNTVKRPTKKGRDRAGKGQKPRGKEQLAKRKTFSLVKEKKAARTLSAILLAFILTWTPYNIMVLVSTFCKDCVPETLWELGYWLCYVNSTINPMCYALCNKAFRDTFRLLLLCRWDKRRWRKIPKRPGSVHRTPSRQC
Test: Antagonist activity at recombinant human muscarinic M1 receptor expressed in CHO-K1 cells assessed as inhibition of acetylcholine induced calcium mobilization preincubated for 10 mins followed by acetylcholine addition measured after 1 hr by fluo-4 AM dye-based FLIPR assay
Assay type: functional, cell-based
Details: not given

SMILES | Ki
Cc1ncoc1-c1nnc(SCCCN2CC3CCN(c4ccccc4)C3C2)n1C (stereo in doubt; 6b) | 1 µM
Cn1c(SCCCN2CC3CCN(c4ccccc4)C3C2)nnc1C1CCOCC1 (stereo in doubt; 62a) | 1.02 µM

Biological target: Cytochrome P450 2C19 (Homo sapiens, UniProt P33261)
Test: Inhibition of recombinant human CYP2C19 expressed in baculosomes preincubated for 10 mins followed by cofactor addition measured every minute for 10 mins using 3-butyryl-7-methoxycoumarin as substrate by CYPEX assay
Details: not given

Chain of Cytochrome P450 2C19 (P33261 whole entry): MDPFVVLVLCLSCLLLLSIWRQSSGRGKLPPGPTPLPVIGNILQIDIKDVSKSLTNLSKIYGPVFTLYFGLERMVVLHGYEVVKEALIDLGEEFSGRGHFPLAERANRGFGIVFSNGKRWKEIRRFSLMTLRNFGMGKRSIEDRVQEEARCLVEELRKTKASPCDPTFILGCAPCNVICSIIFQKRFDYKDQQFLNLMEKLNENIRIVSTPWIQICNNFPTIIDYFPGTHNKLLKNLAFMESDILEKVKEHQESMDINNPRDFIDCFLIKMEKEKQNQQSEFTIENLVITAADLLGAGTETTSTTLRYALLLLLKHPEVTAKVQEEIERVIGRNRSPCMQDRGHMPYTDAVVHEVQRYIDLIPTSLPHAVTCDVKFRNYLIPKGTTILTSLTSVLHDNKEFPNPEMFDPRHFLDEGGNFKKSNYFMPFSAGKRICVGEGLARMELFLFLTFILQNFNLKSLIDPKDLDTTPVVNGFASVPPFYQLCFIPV

SMILES | IC50
Cc1ncoc1-c1nnc(SCCCN2CC3CCN(c4ccccc4)C3C2)n1C (stereo in doubt; 6b) | > 1 µM
Cn1c(SCCCN2CC3CCN(c4ccccc4)C3C2)nnc1C1CCOCC1 (stereo in doubt; 62a) | > 17 µM

Biological target: T2, D(2) dopamine receptor (Homo sapiens, UniProt P14416)
Test: Displacement of [3H]-spiperone from human dopamine D2 receptor expressed in CHO-K1 cell membranes after 120 mins by liquid scintillation counter method
Details: not given

T2 sequence (P14416 whole entry): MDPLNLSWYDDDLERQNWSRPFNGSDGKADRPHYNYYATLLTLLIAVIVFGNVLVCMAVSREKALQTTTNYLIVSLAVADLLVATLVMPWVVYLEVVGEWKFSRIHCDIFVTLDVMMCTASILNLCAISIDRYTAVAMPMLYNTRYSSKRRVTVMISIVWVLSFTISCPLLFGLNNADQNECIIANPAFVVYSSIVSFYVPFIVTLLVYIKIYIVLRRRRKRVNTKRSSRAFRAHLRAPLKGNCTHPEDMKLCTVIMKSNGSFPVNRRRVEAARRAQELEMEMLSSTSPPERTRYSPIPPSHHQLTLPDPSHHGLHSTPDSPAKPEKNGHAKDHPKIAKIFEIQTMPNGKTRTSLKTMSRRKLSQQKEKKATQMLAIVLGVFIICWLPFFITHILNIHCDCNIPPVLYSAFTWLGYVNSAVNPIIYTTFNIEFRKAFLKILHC

SMILES | Ki
Cc1ncoc1-c1nnc(SCCCN2CC3CCN(c4ccccc4)C3C2)n1C (stereo in doubt; 6b) | 0.251 µM

Tested on: not listed separately
Test: in vivo
Details: Sprague-Dawley, rat, po
Description: Oral bioavailability in portal vein cannulated Sprague-Dawley rat model

SMILES | bioavailability
Cn1c(SCCCN2CC3CCN(c4ccccc4)C3C2)nnc1C1CCOCC1 (stereo in doubt; 62a) | < 1%

Tested on: not listed separately
Test: Clearance in portal vein cannulated Sprague-Dawley rat blood
Details: whole blood

SMILES | clearance
Cc1ncoc1-c1nnc(SCCCN2CC3CCN(c4ccccc4)C3C2)n1C (stereo in doubt; 6b) | 80.1 mL/min/kg
Cn1c(SCCCN2CC3CCN(c4ccccc4)C3C2)nnc1C1CCOCC1 (stereo in doubt; 62a) | 20 mL/min/kg

Tested on: not listed separately
Test: Fraction unbound in Sprague-Dawley rat brain
Details: not given

SMILES | fraction unbound
Cn1c(SCCCN2CC3CCN(c4ccccc4)C3C2)nnc1C1CCOCC1 (stereo in doubt; 62a) | 0.33

Biological target: Muscarinic acetylcholine receptor M3 (Homo sapiens, UniProt P20309)
Test: Antagonist activity at recombinant human muscarinic M3 receptor expressed in CHO-K1 cells assessed as inhibition of acetylcholine induced calcium mobilization preincubated for 10 mins followed by acetylcholine addition measured after 1 hr by fluo-4 AM dye-based FLIPR assay
Assay type: functional, cell-based
Details: not given

Chain of Muscarinic acetylcholine receptor M3 (P20309 whole entry): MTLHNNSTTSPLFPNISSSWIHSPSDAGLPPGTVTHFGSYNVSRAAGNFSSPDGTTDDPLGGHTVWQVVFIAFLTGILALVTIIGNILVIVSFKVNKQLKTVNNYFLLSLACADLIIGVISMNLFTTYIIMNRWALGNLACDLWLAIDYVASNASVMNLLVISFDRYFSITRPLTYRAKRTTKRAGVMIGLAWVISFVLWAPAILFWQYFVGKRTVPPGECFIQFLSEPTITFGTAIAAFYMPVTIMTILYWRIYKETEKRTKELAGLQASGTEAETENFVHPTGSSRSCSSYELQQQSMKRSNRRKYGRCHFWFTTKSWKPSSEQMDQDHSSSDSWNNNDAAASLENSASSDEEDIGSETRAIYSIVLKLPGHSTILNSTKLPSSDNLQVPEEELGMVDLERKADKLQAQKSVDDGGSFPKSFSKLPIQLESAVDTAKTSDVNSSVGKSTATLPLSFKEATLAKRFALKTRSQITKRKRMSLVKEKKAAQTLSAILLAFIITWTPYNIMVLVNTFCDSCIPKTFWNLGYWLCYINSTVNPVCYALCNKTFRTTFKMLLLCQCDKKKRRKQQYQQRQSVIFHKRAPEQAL

SMILES | Ki
Cc1ncoc1-c1nnc(SCCCN2CC3CCN(c4ccccc4)C3C2)n1C (stereo in doubt; 6b) | 1.26 µM
Cn1c(SCCCN2CC3CCN(c4ccccc4)C3C2)nnc1C1CCOCC1 (stereo in doubt; 62a) | 1.45 µM

Tested on: not listed separately
Test: in vitro
Details: human, liver microsomes, CLH

SMILES | microsomal CLint at 0.5 µM
Cc1ncoc1-c1nnc(SCCCN2CC3CCN(c4ccccc4)C3C2)n1C (stereo in doubt; 6b) | 88 µL/min/mg
Cn1c(SCCCN2CC3CCN(c4ccccc4)C3C2)nnc1C1CCOCC1 (stereo in doubt; 62a) | 26 µL/min/mg

Biological target: T3, Cytochrome P450 1A2 (Homo sapiens, UniProt P05177)
T3 sequence (P05177 whole entry): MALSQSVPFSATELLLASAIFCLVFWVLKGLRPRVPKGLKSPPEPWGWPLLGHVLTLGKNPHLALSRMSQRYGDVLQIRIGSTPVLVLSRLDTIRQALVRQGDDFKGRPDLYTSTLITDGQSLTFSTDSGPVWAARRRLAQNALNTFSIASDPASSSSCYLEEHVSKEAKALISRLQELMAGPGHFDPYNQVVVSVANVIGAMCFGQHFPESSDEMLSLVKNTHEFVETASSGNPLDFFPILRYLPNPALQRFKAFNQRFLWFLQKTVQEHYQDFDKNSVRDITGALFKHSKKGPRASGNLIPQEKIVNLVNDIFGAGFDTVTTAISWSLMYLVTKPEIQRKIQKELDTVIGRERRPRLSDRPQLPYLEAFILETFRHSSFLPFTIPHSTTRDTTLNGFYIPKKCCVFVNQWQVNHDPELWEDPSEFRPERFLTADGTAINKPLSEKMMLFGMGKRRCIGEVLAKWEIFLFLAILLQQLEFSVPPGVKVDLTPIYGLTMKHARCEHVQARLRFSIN
Test: Inhibition of recombinant human CYP1A2 expressed in baculosomes preincubated for 10 mins followed by cofactor addition measured every minute for 10 mins using ethoxyresorufin as substrate by CYPEX assay
Details: not given

SMILES | IC50
Cc1ncoc1-c1nnc(SCCCN2CC3CCN(c4ccccc4)C3C2)n1C (stereo in doubt; 6b) | > 1 µM
Cn1c(SCCCN2CC3CCN(c4ccccc4)C3C2)nnc1C1CCOCC1 (stereo in doubt; 62a) | > 17 µM

Biological target: T4, Cytochrome P450 3A4 (Homo sapiens, UniProt P08684)
Test: Inhibition of recombinant human CYP3A4 expressed in baculosomes preincubated for 10 mins followed by cofactor addition measured every minute for 10 mins using 7-benzyloxyquinoline as substrate by CYPEX assay
Details: not given

T4 sequence (P08684 whole entry): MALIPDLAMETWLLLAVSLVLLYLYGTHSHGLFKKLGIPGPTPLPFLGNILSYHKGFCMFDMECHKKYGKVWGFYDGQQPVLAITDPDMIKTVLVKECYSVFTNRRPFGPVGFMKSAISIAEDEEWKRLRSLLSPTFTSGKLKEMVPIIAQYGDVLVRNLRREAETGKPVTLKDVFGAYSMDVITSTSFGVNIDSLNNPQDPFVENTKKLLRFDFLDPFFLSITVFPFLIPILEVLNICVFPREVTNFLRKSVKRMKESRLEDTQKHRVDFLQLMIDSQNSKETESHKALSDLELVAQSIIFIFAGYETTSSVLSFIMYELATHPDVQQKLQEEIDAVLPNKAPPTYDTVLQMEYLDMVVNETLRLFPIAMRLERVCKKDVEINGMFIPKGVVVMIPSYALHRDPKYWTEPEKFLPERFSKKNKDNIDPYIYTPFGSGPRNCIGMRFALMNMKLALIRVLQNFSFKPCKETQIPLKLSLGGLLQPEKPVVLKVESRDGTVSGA

SMILES | IC50
Cc1ncoc1-c1nnc(SCCCN2CC3CCN(c4ccccc4)C3C2)n1C (stereo in doubt; 6b) | > 1 µM
Cn1c(SCCCN2CC3CCN(c4ccccc4)C3C2)nnc1C1CCOCC1 (stereo in doubt; 62a) | > 17 µM

Biological target: T4, Cytochrome P450 3A4
Test: Inhibition of recombinant human CYP3A4 expressed in baculosomes preincubated for 10 mins followed by cofactor addition measured every minute for 10 mins using diethoxyflourescein as substrate by CYPEX assay
Details: not given

SMILES | IC50
Cc1ncoc1-c1nnc(SCCCN2CC3CCN(c4ccccc4)C3C2)n1C (stereo in doubt; 6b) | > 1 µM
Cn1c(SCCCN2CC3CCN(c4ccccc4)C3C2)nnc1C1CCOCC1 (stereo in doubt; 62a) | > 17 µM

Tested on: not listed separately
Test: Fraction unbound in Sprague-Dawley rat blood
Details: not given

SMILES | fraction unbound
Cn1c(SCCCN2CC3CCN(c4ccccc4)C3C2)nnc1C1CCOCC1 (stereo in doubt; 62a) | 0.31

Biological target: D(3) dopamine receptor (Homo sapiens, UniProt P35462)
Test: Displacement of [3H]-spiperone from human dopamine D3 receptor expressed in CHO-K1 cell membranes after 90 mins by liquid scintillation counter method
Details: not given

Chain of D(3) dopamine receptor (P35462 whole entry): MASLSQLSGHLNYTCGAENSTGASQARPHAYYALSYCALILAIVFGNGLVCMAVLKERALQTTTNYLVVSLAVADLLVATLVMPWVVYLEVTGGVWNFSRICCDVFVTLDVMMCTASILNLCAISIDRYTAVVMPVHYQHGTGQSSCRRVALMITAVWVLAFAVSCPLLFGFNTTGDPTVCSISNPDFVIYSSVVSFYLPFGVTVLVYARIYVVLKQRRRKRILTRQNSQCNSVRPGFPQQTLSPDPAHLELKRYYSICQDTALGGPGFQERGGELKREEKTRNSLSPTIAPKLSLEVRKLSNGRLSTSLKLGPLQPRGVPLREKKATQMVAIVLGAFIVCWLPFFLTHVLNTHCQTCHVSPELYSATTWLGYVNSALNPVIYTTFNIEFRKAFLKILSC

SMILES | Ki
Cn1c(SCCCN2CC3CCN(c4ccccc4)C3C2)nnc1C1CCOCC1 (stereo in doubt; 62a) | 0.00631 µM

Tested on: not listed separately
Test: Solubility of compound
Assay type: physicochemical
Details: not given

SMILES | solubility
Cn1c(SCCCN2CC3CCN(c4ccccc4)C3C2)nnc1C1CCOCC1 (stereo in doubt; 62a) | > 2000 µg/mL

Tested on: not listed separately
Test: Half life in portal vein cannulated Sprague-Dawley rat model
Details: in vivo

SMILES | half-life
Cc1ncoc1-c1nnc(SCCCN2CC3CCN(c4ccccc4)C3C2)n1C (stereo in doubt; 6b) | 18 min
Cn1c(SCCCN2CC3CCN(c4ccccc4)C3C2)nnc1C1CCOCC1 (stereo in doubt; 62a) | 18 min

Biological target: T2, D(2) dopamine receptor
Test: Antagonist activity at human dopamine D2L receptor expressed in CHO cells assessed as inhibition of dopamine-mediated Ca+2 stimulation pretreated for 10 mins followed by addition of dopamine by fluo-4 AM dye-based FLIPR assay
Assay type: cell-based
Details: not given

SMILES | Ki
Cc1ncoc1-c1nnc(SCCCN2CC3CCN(c4ccccc4)C3C2)n1C (stereo in doubt; 6b) | 0.158 µM

Tested on: not listed separately
Test: Permeability across apical to basolateral side in human Caco2 cells
Details: Caco-2

SMILES | permeability
Cn1c(SCCCN2CC3CCN(c4ccccc4)C3C2)nnc1C1CCOCC1 (stereo in doubt; 62a) | permeable

Biological target: Voltage-gated inwardly rectifying potassium channel KCNH2 (Homo sapiens, UniProt Q12809)
Test: Inhibition of human ERG tail current expressed in HEK293 cells after 5 mins by patch clamp assay
Details: not given

Chain of Voltage-gated inwardly rectifying potassium channel KCNH2 (Q12809 whole entry): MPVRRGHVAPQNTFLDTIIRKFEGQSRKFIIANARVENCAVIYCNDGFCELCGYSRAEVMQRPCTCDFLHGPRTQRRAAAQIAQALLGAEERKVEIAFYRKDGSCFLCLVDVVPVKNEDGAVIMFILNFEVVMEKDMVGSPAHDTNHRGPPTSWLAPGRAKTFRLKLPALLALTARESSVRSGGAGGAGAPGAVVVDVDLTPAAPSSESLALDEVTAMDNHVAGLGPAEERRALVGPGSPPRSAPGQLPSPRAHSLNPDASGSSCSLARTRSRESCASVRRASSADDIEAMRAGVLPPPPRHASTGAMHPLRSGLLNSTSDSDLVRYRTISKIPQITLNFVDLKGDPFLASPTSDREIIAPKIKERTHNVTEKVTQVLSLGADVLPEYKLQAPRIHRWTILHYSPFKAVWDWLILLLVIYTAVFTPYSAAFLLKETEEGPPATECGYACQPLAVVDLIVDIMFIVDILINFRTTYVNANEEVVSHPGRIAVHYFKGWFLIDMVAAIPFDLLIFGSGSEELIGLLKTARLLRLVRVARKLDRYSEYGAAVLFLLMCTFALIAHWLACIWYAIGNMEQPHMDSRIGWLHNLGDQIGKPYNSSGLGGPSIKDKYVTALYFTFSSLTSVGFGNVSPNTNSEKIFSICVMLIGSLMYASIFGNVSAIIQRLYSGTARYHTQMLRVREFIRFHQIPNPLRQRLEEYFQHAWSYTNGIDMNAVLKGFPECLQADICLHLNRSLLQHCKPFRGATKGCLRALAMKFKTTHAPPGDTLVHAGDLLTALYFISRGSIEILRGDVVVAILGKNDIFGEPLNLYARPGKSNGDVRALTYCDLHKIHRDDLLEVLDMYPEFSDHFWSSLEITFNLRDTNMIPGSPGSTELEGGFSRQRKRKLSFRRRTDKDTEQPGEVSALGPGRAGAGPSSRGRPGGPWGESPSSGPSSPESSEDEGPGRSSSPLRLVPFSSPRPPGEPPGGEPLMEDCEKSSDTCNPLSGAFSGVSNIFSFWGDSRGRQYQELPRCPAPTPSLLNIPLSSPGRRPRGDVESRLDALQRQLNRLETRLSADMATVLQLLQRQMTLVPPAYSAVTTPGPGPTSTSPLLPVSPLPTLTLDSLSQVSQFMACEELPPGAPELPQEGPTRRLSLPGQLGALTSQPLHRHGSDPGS

SMILES | IC50
Cc1ncoc1-c1nnc(SCCCN2CC3CCN(c4ccccc4)C3C2)n1C (stereo in doubt; 6b) | 1.26 µM

Tested on: not listed separately
Test: in vitro
Details: rat, liver microsomes, CLH

SMILES | microsomal CLint at 0.5 µM
Cc1ncoc1-c1nnc(SCCCN2CC3CCN(c4ccccc4)C3C2)n1C (stereo in doubt; 6b) | 364 µL/min/mg
Cn1c(SCCCN2CC3CCN(c4ccccc4)C3C2)nnc1C1CCOCC1 (stereo in doubt; 62a) | 272 µL/min/mg

Biological target: Cytochrome P450 2D6 (Homo sapiens, UniProt P10635)
Test: Inhibition of recombinant human CYP2D6 expressed in baculosomes preincubated for 10 mins followed by cofactor addition measured every minute for 10 mins using 4-methylaminomethyl-7-methoxycoumarin as substrate by CYPEX assay
Details: not given

Chain of Cytochrome P450 2D6 (P10635 whole entry): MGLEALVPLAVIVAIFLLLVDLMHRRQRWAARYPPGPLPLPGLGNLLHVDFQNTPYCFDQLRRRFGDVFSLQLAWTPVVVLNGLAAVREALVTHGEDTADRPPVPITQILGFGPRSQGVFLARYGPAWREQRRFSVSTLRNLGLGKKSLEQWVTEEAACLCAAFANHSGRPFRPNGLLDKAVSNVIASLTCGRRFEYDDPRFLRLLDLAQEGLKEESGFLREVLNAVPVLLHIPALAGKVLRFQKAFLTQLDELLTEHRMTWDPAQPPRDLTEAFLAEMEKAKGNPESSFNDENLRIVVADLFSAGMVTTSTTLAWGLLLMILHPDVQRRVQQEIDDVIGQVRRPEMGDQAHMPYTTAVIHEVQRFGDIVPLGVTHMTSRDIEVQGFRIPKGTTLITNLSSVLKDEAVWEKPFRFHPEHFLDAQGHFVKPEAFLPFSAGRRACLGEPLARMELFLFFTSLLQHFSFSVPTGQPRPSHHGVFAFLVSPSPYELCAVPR

SMILES | IC50
Cc1ncoc1-c1nnc(SCCCN2CC3CCN(c4ccccc4)C3C2)n1C (stereo in doubt; 6b) | > 1 µM
Cn1c(SCCCN2CC3CCN(c4ccccc4)C3C2)nnc1C1CCOCC1 (stereo in doubt; 62a) | > 17 µM

Tested on: not listed separately
Test: Volume of distribution at steady state in portal vein cannulated Sprague-Dawley rat model
Details: in vivo

SMILES | Vd
Cc1ncoc1-c1nnc(SCCCN2CC3CCN(c4ccccc4)C3C2)n1C (stereo in doubt; 6b) | 2.2 L/kg
Cn1c(SCCCN2CC3CCN(c4ccccc4)C3C2)nnc1C1CCOCC1 (stereo in doubt; 62a) | 0.44 L/kg

Biological target: Cytochrome P450 2C9 (Homo sapiens, UniProt P11712)
Test: Inhibition of recombinant human CYP2C9 expressed in baculosomes preincubated for 10 mins followed by cofactor addition measured every minute for 10 mins using 7-methoxy-4-trifluoromethylcoumarin-3-acetic acid as substrate by CYPEX assay
Details: not given

Chain of Cytochrome P450 2C9 (P11712 whole entry): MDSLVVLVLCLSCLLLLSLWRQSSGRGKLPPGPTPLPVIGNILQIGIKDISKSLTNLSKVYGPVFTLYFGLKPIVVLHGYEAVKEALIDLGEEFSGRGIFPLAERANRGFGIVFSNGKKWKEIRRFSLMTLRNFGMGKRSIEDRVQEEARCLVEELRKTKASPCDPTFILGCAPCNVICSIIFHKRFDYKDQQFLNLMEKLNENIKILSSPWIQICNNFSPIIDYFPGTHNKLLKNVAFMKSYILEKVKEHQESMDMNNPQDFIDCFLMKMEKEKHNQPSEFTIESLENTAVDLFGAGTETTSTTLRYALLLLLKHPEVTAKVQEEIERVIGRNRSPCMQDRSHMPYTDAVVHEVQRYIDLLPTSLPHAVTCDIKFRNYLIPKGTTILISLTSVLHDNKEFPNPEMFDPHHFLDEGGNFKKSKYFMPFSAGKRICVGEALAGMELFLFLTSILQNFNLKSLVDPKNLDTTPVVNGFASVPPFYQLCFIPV

SMILES | IC50
Cc1ncoc1-c1nnc(SCCCN2CC3CCN(c4ccccc4)C3C2)n1C (stereo in doubt; 6b) | > 1 µM
Cn1c(SCCCN2CC3CCN(c4ccccc4)C3C2)nnc1C1CCOCC1 (stereo in doubt; 62a) | > 17 µM

Tested on: not listed separately
Test: Fraction absorbed in portal vein cannulated Sprague-Dawley rat model
Details: in vivo

SMILES | Fa
Cc1ncoc1-c1nnc(SCCCN2CC3CCN(c4ccccc4)C3C2)n1C (stereo in doubt; 6b) | 50%
Cn1c(SCCCN2CC3CCN(c4ccccc4)C3C2)nnc1C1CCOCC1 (stereo in doubt; 62a) | 5.5%
